# Reference: article PMC9151520 (Archives of Toxicology, 2022)
# Where “and” joins values, the source holds several entries; their conditions need not be identical. Equal entries are not always repeated. Where two headings read alike, the source gives them in different places.
# Assays:
# [1] = tested on: p53 signaling (p53RE-bla HCT-116 cells)
# [2] = tested on: p53 signaling (p53RE-bla HCT-116 cells); assay: cells; assay type: cell-based; design: efficacy: unit not given here; conditions: for Emax: HCT-116, read-out: efficacy
# [3] = rat, microsomes, pH 7.4
# [4] = tested on: p53 signaling (p53RE-bla HCT-116 cells); assay: cells; assay type: cell-based
# [5] = tested on: p53 signaling (p53RE-bla HCT-116 cells); remark: listed apart in the source
# [6] = tested on: p53 signaling (p53RE-bla HCT-116 cells); assay: cells; assay type: cell-based; remark: listed apart in the source
# [7] = tested on: p53 signaling (p53RE-bla HCT-116 cells); assay: cells; conditions: Homo sapiens
# in vitro = conditions: male, Sprague Dawley, rat, microsomes, pH 7.4
# [8] = rat
# [9] = tested on: p53 signaling (p53RE-bla HCT-116 cells); assay: cells; conditions: Homo sapiens; remark: listed apart in the source
# [10] = read-out: p53 activation EC50, RLM
# [11] = HCT-116, read-out: p53 activation EC50, RLM
# [12] = HCT-116, read-out: p53 activation EC50, HLM
# [13] = HCT-116, read-out: p53 activation efficacy, primary screening
structure (smiles),measurement,setting,value
COP(=S)(NC(C)C)Oc1ccc(C)cc1[N+](=O)[O-] (stereo not drawn) [Amiprofos-methyl],EC50,[1],4.69 µM
same,activity outcome in p53-bla assay,[1],induce p53 signaling
same,p53 activation efficacy,[1],84.8532 and 75.0867
same,efficacy,[2],4.48 ± 0.3 ( 100.11 ± 8.75 ) %
same,EC50,[2]; read-out: EC50,4.48 µM
same,Microsome stability Half-life without cells,[3],1.11 min
same,Viability EC50,p53RE-bla HCT-116 cells,inactive
same,Viability efficacy,p53RE-bla HCT-116 cells,inactive
same,EC50,[4],Inactive
same,p53 activation EC50,[5],inactive
same,p53 activation EC50,[6],inactive
same,p53 activation efficacy,[6],inactive
CCOP(=S)(OCC)Oc1nc(Cl)c(Cl)cc1Cl [Chlorpyrifos],activity outcome in p53-bla assay,[1],activator of p53 signaling
same,EC50,[1]; [10],2.8 µM
same,EC50,[7]; HCT-116,3.47 µM
same,Emax,"[7]; HCT-116, read-out: efficacy",50.6%
same,EC50,[7]; [11],2.92 µM
same,EC50,"[2]; Homo sapiens, HCT-116",3.75 µM
same,Emax,[2]; Homo sapiens,45.2%
same,half-life,in vitro,1.11 ± 0.07 min
same,"Viability EC50, HLM",p53RE-bla HCT-116 cells,inactive
same,"Viability EC50, No MS",p53RE-bla HCT-116 cells,inactive
same,"Viability EC50, RLM",p53RE-bla HCT-116 cells,inactive
same,"Viability Efficacy, HLM",p53RE-bla HCT-116 cells,inactive
same,"Viability Efficacy, No MS",p53RE-bla HCT-116 cells,inactive
same,"Viability Efficacy, RLM",p53RE-bla HCT-116 cells,inactive
same,EC50,[4],Inactive
same,"p53 activation EC50, HLM",[5],inactive
same,Depletion after 16 h of incubation with cells,[8],92.74 ± 1.38%
same,EC50,[9]; [12],1.78 µM
same,activity outcome in p53-bla assay,[6],inactive
same,"p53 activation EC50, No MS",[6],inactive
same,"p53 activation Efficacy, No MS",[6],inactive
CCOP(=S)(OCC)Oc1ccc2c(C)c(Cl)c(=O)oc2c1 [Coumaphos],activity outcome in p53-bla assay,[1],induce p53 signaling
same,EC50,[7]; HCT-116,5.95 µM
same,EC50,"[2]; Homo sapiens, HCT-116",7.03 µM
same,Emax,[2]; Homo sapiens,68.7%
same,half-life,in vitro,0.88 ± 0.12 min
same,"Viability EC50, HLM",p53RE-bla HCT-116 cells,inactive
same,"Viability EC50, No MS",p53RE-bla HCT-116 cells,inactive
same,"Viability EC50, RLM",p53RE-bla HCT-116 cells,inactive
same,"Viability Efficacy, HLM",p53RE-bla HCT-116 cells,inactive
same,"Viability Efficacy, No MS",p53RE-bla HCT-116 cells,inactive
same,"Viability Efficacy, RLM",p53RE-bla HCT-116 cells,inactive
same,EC50,[4],Inactive
same,"p53 activation EC50, HLM",[5],inactive
same,Depletion after 16 h of incubation with cells,[8],99.03 ± 0.34%
same,EC50,[9]; [12],0.891 µM
same,"p53 activation EC50, No MS",[6],inactive
same,"p53 activation Efficacy, No MS",[6],inactive
CCOP(=S)(OCC)SCCSCC [Disulfoton],activity outcome in p53-bla assay,[1],induce p53 signaling
same,EC50,[1]; [10],3.97 µM
same,EC50,[7]; HCT-116,9.13 µM
same,Emax,"[7]; HCT-116, read-out: efficacy",43.3%
same,EC50,[7]; [11],7.78 µM
same,EC50,"[2]; Homo sapiens, HCT-116",8.47 µM
same,Emax,[2]; Homo sapiens,43.6%
same,half-life,in vitro,> 120 min
same,"Viability EC50, HLM",p53RE-bla HCT-116 cells,inactive
same,"Viability EC50, No MS",p53RE-bla HCT-116 cells,inactive
same,"Viability EC50, RLM",p53RE-bla HCT-116 cells,inactive
same,"Viability Efficacy, HLM",p53RE-bla HCT-116 cells,inactive
same,"Viability Efficacy, No MS",p53RE-bla HCT-116 cells,inactive
same,"Viability Efficacy, RLM",p53RE-bla HCT-116 cells,inactive
same,EC50,[4],Inactive
same,"p53 activation EC50, HLM",[5],inactive
same,Depletion after 16 h of incubation with cells,[8],93.89 ± 4.12%
same,EC50,[9]; [12],5.07 µM
same,"p53 activation EC50, No MS",[6],inactive
same,"p53 activation Efficacy, No MS",[6],inactive
CCNP(=S)(OC)O/C(C)=C/C(=O)OC(C)C (stereo not drawn) [Propetamphos],p53 activation efficacy,[1],78.66 and 99.2667
same,EC50,[7]; HCT-116,3.05 µM
same,Emax,"[7]; HCT-116, read-out: efficacy",88.6%
same,EC50,"[2]; Homo sapiens, HCT-116",2.59 µM
same,half-life,in vitro,> 120 min
same,Viability EC50,p53RE-bla HCT-116 cells,inactive
same,Viability efficacy,p53RE-bla HCT-116 cells,inactive
same,EC50,"[4]; Homo sapiens, HCT-116, 0.5 h",2 µM
same,p53 activation EC50,[5],inactive
same,Depletion after 16 h of incubation with cells,[8],91.32 ± 1.7%
same,EC50,"[9]; HCT-116, read-out: p53 activation EC50",0.731 µM
same,Emax,"[9]; HCT-116, read-out: p53 activation efficacy",39.9%
same,p53 activation EC50,[6],inactive
same,p53 activation efficacy,[6],inactive
CCOP(=O)(OCC)OC(=CCl)c1ccc(Cl)cc1Cl [Chlorfenvinphos],EC50,[1]; [10],2.08 µM
same,EC50,[7]; HCT-116,6.36 µM
same,Emax,"[7]; HCT-116, read-out: efficacy",66.8%
same,EC50,[7]; [11],3.8 µM
same,EC50,"[2]; Homo sapiens, HCT-116",2.54 µM
same,half-life,in vitro,28.6 ± 1.85 min
same,"Viability EC50, HLM",p53RE-bla HCT-116 cells,inactive
same,"Viability EC50, No MS",p53RE-bla HCT-116 cells,inactive
same,"Viability EC50, RLM",p53RE-bla HCT-116 cells,inactive
same,"Viability Efficacy, HLM",p53RE-bla HCT-116 cells,inactive
same,"Viability Efficacy, No MS",p53RE-bla HCT-116 cells,inactive
same,"Viability Efficacy, RLM",p53RE-bla HCT-116 cells,inactive
same,EC50,"[4]; Homo sapiens, HCT-116, 0.5 h",0.02 µM
same,"p53 activation EC50, HLM",[5],inactive
same,Depletion after 16 h of incubation with cells,[8],55.04 ± 4.69%
same,EC50,[9]; [12],3.05 µM
same,"p53 activation EC50, No MS",[6],inactive
same,"p53 activation Efficacy, No MS",[6],inactive
COP(=S)(OC)Oc1ccc(S(=O)(=O)N(C)C)cc1 [Famphur],EC50,[1]; [10],3.1 µM
same,EC50,[7]; HCT-116,2.46 µM
same,Emax,"[7]; HCT-116, read-out: efficacy",73.6%
same,EC50,[7]; [11],3.12 µM
same,EC50,"[2]; Homo sapiens, HCT-116",3.1 µM
same,half-life,in vitro,10.8 ± 1.96 min
same,"Viability EC50, HLM",p53RE-bla HCT-116 cells,inactive
same,"Viability EC50, No MS",p53RE-bla HCT-116 cells,inactive
same,"Viability EC50, RLM",p53RE-bla HCT-116 cells,inactive
same,"Viability Efficacy, HLM",p53RE-bla HCT-116 cells,inactive
same,"Viability Efficacy, No MS",p53RE-bla HCT-116 cells,inactive
same,"Viability Efficacy, RLM",p53RE-bla HCT-116 cells,inactive
same,EC50,"[4]; Homo sapiens, HCT-116, 0.5 h",0.49 µM
same,"p53 activation EC50, HLM",[5],inactive
same,Depletion after 16 h of incubation with cells,[8],87.7 ± 3.02%
same,EC50,[9]; [12],2.02 µM
same,"p53 activation EC50, No MS",[6],inactive
same,"p53 activation Efficacy, No MS",[6],inactive
Cc1cc(=O)oc2cc(O)ccc12.O [4-Methylumbelliferone hydrate],EC50,[1],23.3 µM
same,EC50,"[1]; read-out: EC50, p53 activation, cherry pick confirmation",25.7 µM
same,EC50,"[1]; read-out: EC50, p53 activation, primary screening",33.4 µM
same,efficacy,[2],25.18 ± 1.7 ( 100.84 ± 7.34 ) %
same,EC50,[2]; read-out: EC50,25.2 µM
same,Microsome stability Half-life without cells,[3],26.74 ± 0.98 min
same,"EC50, viability, cherry pick confirmation",p53RE-bla HCT-116 cells,inactive
same,"EC50, viability, primary screening",p53RE-bla HCT-116 cells,inactive
same,"Efficacy, viability, cherry pick confirmation",p53RE-bla HCT-116 cells,inactive
same,"Efficacy, viability, primary screening",p53RE-bla HCT-116 cells,inactive
same,EC50,[4],Inactive
same,"EC50, p53 activation, cherry pick confirmation",[5],inactive
same,"EC50, p53 activation, primary screening",[5],inactive
same,"EC50, p53 activation, cherry pick confirmation",[6],inactive
same,"EC50, p53 activation, primary screening",[6],inactive
same,"Efficacy, p53 activation, cherry pick confirmation",[6],inactive
same,"Efficacy, p53 activation, primary screening",[6],inactive
CCOP(=S)(OCC)SCSC(C)(C)C [Terbufos],activity outcome in p53-bla assay,[1],induce p53 signaling
same,EC50,[7]; HCT-116,2.81 µM
same,Emax,"[7]; HCT-116, read-out: efficacy",62.7%
same,EC50,"[7]; HCT-116, read-out: p53 activation EC50, cherry pick confirmation",1.32 µM
same,Emax,"[7]; HCT-116, read-out: p53 activation efficacy, cherry pick confirmation",54.3%
same,Emax,[7]; [13],37.5%
same,EC50,"[2]; Homo sapiens, HCT-116",1.12 µM
same,Emax,[2]; Homo sapiens,53.9%
same,half-life,in vitro,1.12 ± 0.2 min
same,"Viability EC50, cherry pick confirmation",p53RE-bla HCT-116 cells,inactive
same,"Viability EC50, primary screening",p53RE-bla HCT-116 cells,inactive
same,"Viability efficacy, cherry pick confirmation",p53RE-bla HCT-116 cells,inactive
same,"Viability efficacy, primary screening",p53RE-bla HCT-116 cells,inactive
same,EC50,[4],Inactive
same,"p53 activation EC50, cherry pick confirmation",[5],inactive
same,"p53 activation efficacy, cherry pick confirmation",[5],inactive
same,Depletion after 16 h of incubation with cells,[8],98.65 ± 1.08%
same,Emax,[9]; [13],37.6%
same,"p53 activation EC50, cherry pick confirmation",[6],inactive
same,"p53 activation EC50, primary screening",[6],inactive
same,"p53 activation efficacy, cherry pick confirmation",[6],inactive
same,"p53 activation efficacy, primary screening",[6],inactive
